Experimental data: article PMC3382171 (PLoS ONE, 2012)

Assays:
Test in all cases: biochemical
Set-up in all cases: Invitrogen SelectScreen kinase panel, percent inhibition at 1 uM, ATP at Km
Conditions in all cases: read-out: Invitrogen KSS %Inh at 1 µM
MAPK3 (ERK1) = MAPK3 (ERK1) (Homo sapiens, UniProt P27361)
Method in brief: (§1)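 Commercial kinase panel screens run with ATP at the Km for each kinase. Compounds tested at 1 µM final concentration; values are % inhibition of phosphorylation relative to control.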

CDC42 BPB (MRCKB) = target: T1, CDC42 BPB (MRCKB) (Homo sapiens, UniProt Q9Y5S2)
T1 construct: gene CDC42BPB
Method in brief: as §1

IKBKB (IKK beta) = IKBKB (IKK beta) (Homo sapiens, UniProt O14920)
IKBKB (IKK beta), sequence (O14920 whole entry): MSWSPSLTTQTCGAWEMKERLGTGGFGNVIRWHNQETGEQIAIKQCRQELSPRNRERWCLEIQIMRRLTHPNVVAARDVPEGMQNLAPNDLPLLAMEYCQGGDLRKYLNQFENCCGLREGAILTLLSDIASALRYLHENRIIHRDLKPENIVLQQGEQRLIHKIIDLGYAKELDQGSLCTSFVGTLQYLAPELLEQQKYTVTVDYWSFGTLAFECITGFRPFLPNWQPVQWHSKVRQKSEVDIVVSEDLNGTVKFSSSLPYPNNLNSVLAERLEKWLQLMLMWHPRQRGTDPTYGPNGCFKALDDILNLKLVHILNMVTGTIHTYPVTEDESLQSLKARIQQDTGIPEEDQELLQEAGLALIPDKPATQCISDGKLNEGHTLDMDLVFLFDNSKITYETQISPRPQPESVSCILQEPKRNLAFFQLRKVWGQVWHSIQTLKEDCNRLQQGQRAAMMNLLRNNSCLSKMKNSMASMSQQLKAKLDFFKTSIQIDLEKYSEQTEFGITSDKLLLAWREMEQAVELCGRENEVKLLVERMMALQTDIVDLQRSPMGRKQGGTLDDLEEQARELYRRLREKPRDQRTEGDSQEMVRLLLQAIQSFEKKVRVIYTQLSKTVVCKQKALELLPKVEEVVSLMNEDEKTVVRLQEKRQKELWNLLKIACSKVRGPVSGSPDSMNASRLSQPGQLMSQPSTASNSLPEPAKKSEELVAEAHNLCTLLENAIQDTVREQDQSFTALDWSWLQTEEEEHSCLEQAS
Method in brief: as §1

PRKG1 = PRKG1 (Homo sapiens, UniProt Q13976)
PRKG1, sequence (Q13976 whole entry): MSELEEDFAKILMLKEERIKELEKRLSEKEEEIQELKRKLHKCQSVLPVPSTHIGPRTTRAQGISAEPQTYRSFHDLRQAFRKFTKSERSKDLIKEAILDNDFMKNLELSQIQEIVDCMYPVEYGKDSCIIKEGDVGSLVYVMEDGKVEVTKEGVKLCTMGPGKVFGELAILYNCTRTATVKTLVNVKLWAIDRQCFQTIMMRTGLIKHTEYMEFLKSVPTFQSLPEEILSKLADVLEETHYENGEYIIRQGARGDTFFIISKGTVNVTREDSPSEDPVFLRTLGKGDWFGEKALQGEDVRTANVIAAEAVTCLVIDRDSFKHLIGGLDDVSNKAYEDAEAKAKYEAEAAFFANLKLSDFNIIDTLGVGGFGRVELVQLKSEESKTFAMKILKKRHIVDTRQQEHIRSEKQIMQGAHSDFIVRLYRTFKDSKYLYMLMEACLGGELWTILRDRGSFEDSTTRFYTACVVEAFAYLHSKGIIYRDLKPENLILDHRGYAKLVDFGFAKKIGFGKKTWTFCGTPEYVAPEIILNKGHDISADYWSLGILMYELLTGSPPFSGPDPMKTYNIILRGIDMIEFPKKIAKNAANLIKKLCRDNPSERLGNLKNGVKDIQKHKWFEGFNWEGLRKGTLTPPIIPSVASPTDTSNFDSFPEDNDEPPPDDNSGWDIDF
Method in brief: as §1

RPS6KA3 (RSK2) = RPS6KA3 (RSK2) (Homo sapiens, UniProt P51812)
Method in brief: as §1

CSNK1G1 (CK1 gamma 1) = CSNK1G1 (CK1 gamma 1) (Homo sapiens, UniProt Q9HCP0)
CSNK1G1 (CK1 gamma 1), sequence (Q9HCP0 whole entry): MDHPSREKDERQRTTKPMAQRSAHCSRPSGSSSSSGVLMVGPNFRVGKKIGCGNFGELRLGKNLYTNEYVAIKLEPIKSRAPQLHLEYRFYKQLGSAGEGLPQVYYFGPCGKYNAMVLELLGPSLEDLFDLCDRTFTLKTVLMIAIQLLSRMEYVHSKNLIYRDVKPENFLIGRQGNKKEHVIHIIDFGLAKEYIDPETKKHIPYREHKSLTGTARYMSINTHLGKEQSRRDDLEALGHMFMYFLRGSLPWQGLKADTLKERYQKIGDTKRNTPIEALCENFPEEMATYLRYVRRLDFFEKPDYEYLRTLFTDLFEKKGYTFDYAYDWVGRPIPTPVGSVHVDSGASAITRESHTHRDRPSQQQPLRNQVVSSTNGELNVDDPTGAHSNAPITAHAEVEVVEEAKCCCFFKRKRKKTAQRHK
Method in brief: as §1

STK3 (MST2) = STK3 (MST2) (Homo sapiens, UniProt Q13188)
Method in brief: as §1

DAPK3 (ZIPK) = DAPK3 (ZIPK) (Homo sapiens, UniProt O43293)
Method in brief: as §1

HIPK4 = HIPK4 (Homo sapiens, UniProt Q8NE63)
HIPK4, sequence (Q8NE63 whole entry): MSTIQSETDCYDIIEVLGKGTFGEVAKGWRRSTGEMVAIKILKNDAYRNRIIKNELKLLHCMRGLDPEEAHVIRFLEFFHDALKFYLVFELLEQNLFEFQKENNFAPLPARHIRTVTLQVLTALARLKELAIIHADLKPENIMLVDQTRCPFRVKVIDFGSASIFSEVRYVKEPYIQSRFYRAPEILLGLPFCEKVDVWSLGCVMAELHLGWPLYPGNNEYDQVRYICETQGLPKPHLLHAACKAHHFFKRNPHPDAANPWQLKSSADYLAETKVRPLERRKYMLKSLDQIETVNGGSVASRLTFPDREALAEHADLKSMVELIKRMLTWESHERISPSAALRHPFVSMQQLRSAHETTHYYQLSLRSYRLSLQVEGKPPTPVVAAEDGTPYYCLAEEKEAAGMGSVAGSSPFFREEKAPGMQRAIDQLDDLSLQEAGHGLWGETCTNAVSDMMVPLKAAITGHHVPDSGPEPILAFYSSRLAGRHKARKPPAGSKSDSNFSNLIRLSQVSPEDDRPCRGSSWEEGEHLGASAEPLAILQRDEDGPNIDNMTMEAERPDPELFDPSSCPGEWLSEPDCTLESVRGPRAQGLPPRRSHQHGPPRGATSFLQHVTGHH
Method in brief: as §1

PLK1 = PLK1 (Homo sapiens, UniProt P53350)
Method in brief: as §1

MAPK14 (p38 alpha)** = MAPK14 (p38 alpha)** (Homo sapiens, UniProt Q16539)
MAPK14 (p38 alpha)**, sequence (Q16539 whole entry): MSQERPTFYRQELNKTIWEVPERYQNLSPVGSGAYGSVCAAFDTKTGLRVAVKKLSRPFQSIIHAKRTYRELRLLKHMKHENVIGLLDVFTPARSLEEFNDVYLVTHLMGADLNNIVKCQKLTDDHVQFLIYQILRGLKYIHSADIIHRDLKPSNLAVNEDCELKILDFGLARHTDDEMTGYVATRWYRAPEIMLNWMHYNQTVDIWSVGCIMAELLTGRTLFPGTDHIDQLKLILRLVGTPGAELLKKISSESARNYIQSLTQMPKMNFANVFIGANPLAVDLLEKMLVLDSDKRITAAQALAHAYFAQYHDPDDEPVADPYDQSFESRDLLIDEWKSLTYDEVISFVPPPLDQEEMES
Method in brief: as §1

MAP4K2 (GCK) = MAP4K2 (GCK) (Homo sapiens, UniProt Q12851)
MAP4K2 (GCK), sequence (Q12851 whole entry): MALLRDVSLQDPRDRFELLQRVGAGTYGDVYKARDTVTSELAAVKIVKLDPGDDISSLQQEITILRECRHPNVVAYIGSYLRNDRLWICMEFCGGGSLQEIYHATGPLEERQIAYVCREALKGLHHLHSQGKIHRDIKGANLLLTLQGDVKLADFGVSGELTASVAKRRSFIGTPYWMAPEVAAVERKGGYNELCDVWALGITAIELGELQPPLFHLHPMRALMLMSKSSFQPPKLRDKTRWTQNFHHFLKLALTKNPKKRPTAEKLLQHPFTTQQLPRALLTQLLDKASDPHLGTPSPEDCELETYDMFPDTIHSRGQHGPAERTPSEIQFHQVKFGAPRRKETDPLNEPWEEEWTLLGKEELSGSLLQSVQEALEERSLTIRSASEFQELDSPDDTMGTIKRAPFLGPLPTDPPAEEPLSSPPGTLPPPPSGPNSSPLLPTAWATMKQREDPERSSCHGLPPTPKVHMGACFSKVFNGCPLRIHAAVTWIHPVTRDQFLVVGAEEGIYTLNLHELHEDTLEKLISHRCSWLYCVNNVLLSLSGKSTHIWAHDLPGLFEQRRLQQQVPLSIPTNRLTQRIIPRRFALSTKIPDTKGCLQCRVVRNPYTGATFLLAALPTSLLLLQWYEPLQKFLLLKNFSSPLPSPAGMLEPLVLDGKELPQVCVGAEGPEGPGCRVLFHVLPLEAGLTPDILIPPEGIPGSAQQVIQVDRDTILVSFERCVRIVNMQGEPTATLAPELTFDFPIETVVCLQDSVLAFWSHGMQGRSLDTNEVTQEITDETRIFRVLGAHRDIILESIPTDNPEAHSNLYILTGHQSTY
Method in brief: as §1

FGFR4 = FGFR4 (Homo sapiens, UniProt P22455)
Method in brief: as §1

CSF1R (FMS) = CSF1R (FMS) (Homo sapiens, UniProt P07333)
Method in brief: as §1

PKN1 (PRK1) = PKN1 (PRK1) (Homo sapiens, UniProt Q16512)
PKN1 (PRK1), sequence (Q16512 whole entry): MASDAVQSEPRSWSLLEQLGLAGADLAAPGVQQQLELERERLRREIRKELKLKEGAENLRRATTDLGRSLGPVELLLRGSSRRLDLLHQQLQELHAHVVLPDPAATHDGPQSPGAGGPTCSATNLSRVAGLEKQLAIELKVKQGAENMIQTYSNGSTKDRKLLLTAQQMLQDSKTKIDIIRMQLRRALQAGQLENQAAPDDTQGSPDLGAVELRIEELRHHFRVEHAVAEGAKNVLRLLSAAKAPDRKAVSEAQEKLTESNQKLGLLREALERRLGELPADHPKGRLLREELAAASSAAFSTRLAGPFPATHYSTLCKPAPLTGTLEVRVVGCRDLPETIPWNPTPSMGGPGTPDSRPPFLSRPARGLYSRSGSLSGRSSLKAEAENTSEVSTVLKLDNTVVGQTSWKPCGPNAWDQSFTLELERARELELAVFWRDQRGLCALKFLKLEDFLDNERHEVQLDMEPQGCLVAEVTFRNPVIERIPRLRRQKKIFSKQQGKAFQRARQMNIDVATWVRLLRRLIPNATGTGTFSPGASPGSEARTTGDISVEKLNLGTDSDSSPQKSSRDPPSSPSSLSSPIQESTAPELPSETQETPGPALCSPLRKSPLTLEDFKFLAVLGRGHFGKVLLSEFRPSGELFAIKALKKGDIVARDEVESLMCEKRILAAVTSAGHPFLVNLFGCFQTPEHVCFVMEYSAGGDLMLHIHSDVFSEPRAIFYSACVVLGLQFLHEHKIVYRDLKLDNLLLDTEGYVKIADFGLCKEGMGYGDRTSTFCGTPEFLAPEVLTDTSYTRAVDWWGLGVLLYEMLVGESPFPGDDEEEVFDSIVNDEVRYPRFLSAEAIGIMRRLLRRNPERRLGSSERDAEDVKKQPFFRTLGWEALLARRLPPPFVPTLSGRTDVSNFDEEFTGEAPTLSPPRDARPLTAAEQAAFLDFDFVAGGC
Method in brief: as §1

MAPK12 (p38 gamma) = MAPK12 (p38 gamma) (Homo sapiens, UniProt P53778)
Method in brief: as §1

PAK4 = PAK4 (Homo sapiens, UniProt O96013)
Method in brief: as §1

KDR (VEGFR2) = KDR (VEGFR2) (Homo sapiens, UniProt P35968)
Method in brief: as §1

PRKACA (PKA) = PRKACA (PKA) (Homo sapiens, UniProt P17612)
Method in brief: as §1

MET (cMet) = MET (cMet) (Homo sapiens, UniProt P08581)
Method in brief: as §1

EGFR (ErbB1) L858R = EGFR (ErbB1) L858R (Homo sapiens, UniProt P00533, L858R)
Method in brief: as §1

MAPKAPK3 = MAPKAPK3 (Homo sapiens, UniProt Q16644)
MAPKAPK3, sequence (Q16644 whole entry): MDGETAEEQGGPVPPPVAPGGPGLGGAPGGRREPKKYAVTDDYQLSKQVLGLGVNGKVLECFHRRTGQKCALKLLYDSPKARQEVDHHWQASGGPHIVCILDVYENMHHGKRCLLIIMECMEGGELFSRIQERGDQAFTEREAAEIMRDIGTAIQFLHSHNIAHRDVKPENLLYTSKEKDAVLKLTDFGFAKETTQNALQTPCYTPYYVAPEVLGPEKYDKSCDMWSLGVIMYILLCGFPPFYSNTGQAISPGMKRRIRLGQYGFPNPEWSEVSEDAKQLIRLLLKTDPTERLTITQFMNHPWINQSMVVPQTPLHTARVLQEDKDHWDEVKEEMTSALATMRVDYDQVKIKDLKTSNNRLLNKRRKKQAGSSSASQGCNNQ
Method in brief: as §1

N#CCCNc1nccc(-c2cn(CC(F)F)nc2-c2cnc3[nH]ccc3c2)n1 [RAFi, PF-04880594]
inhibition at 1 µM (MAPK3 (ERK1)): 28% | inhibition at 1 µM (CDC42 BPB (MRCKB)): 21% | inhibition at 1 µM (IKBKB (IKK beta)): 0% | inhibition at 1 µM (PRKG1): -3% | inhibition at 1 µM (RPS6KA3 (RSK2)): -9% | inhibition at 1 µM (CSNK1G1 (CK1 gamma 1)): 0% | inhibition at 1 µM (STK3 (MST2)): 9% | inhibition at 1 µM (DAPK3 (ZIPK)): 5% | inhibition at 1 µM (HIPK4): 8% | inhibition at 1 µM (PLK1): 27% | inhibition at 1 µM (MAPK14 (p38 alpha)**): 93% | inhibition at 1 µM (MAP4K2 (GCK)): -12% | inhibition at 1 µM (FGFR4): 5% | inhibition at 1 µM (CSF1R (FMS)): 33% | inhibition at 1 µM (PKN1 (PRK1)): -10% | inhibition at 1 µM (MAPK12 (p38 gamma)): 2% | inhibition at 1 µM (PAK4): 1% | inhibition at 1 µM (KDR (VEGFR2)): 33% | inhibition at 1 µM (PRKACA (PKA)): -1% | inhibition at 1 µM (MET (cMet)): 12% | inhibition at 1 µM (EGFR (ErbB1) L858R): 6% | inhibition at 1 µM (MAPKAPK3): 12%
